US20160201132A1, “GENE EXPRESSION BIOMARKERS OF LAQUINIMOD RESPONSIVENESS” (Teva Pharmaceutical Industries Ltd., priority 2013, published 2016)

Test system: PBMC of RRMS patients
Assay: Gene expression microarray analysis (HG-U133A-2) of PBMC from RRMS patients treated with LAQ, ancillary study to ALLEGRO
Type: in vivo, human
Excerpt: The goal of this ancillary study was to characterize gene expression changes and corresponding biological mechanisms induced in PBMC of RRMS patients by LAQ treatment. According to ALLEGRO clinical trial inclusion criteria, 25 patients were randomly assigned to receive LAQ (n=13, age 38.8±2.3 years, female/male ratio: 8/5) or placebo (n=12, age 37.2±3.4 years, female/male ratio: 8/4).
Peripheral blood samples were obtained from RRMS patients at baseline before start of LAQ treatment or placebo, after 0, 1, 6 and 24 month of treatment (visit 0, 1, 6 and 7 according to ALLEGRO clinical trial protocol correspondently) for gene microarray analysis.
Briefly, 1) Peripheral blood mononuclear cells (PBMC) were obtained from RRMS patients that participated in ALLEGRO and were treated daily with 0.6 mg LAQ or placebo. PBMC were subjected for gene expression analysis (HU-133A-2-Affymatrix arrays) at baseline and at 1 and 6 months of LAQ treatment; 2) Data was analyzed by Partek Genomics Solution software. Most informative genes (MIGs) were defined as those that differentiated between groups with p<0.01. Gene functional annotation, enrichment and pathway analysis were performed by Ingenuity software. For each time point, genes that changed in placebo group were excluded from further analysis; and 3) Verification of LAQ related mechanism was performed by Western blot.
PBMC were extracted from 15 ml peripheral blood, separated by Ficoll-Hypaque gradient. Total RNA was extracted using both Trizol (Invitrogen, USA) and Phase-Lock-Gel columns (Eppendorf, Germany) including a DNase digestion step. RNA integrity was assessed by RNA Experion automated electrophoresis system (Bio-Rad Laboratories, Hercules, Calif.).
Probe synthesis using 3 μg total RNA, hybridization, detection, and scanning was performed according to the standard Affymetrix, Inc. USA protocols; cDNA was synthesized using the Two-Cycle cDNA Synthesis Kit (Affymetrix, Inc., USA), and in-vitro transcription performed with the GeneChip IVT Labeling Kit (Affymetrix, Inc., USA). The biotin-labeled IVT-RNA was hybridized to HG-U133A-2 arrays containing 18,400 gene transcripts, each corresponding to 14,500 well-annotated human genes, washed in a GeneChip Fluidics Station 450 (Hewlett Packard, USA, GeneArray-™ scanner G2500A) and scanned according to the manufacturer's protocol (Affymetrix, Inc., USA).
Data analysis was performed on Partek Genomics Solution software (www.partek.com; Partek Incorporated, St. Louis, Mo.). Expression values were computed from raw CEL files by applying the Robust Multi-Chip Average (RMA) background correction algorithm. RMA correction included: 1) values background correction; 2) quintile normalization; 3) log 2 transformation; and 4) median polish summarization. The ANOVA, Repeated Measures and correlation analysis implicated in Partek software ware applied to evaluate LAQ effects. Most informative genes MIGs were defined as those that differentiated between experimental groups with p<0.01. All p-values were calculated for False Discovery Rate (FDR) multiple test correction at p=0.05.
Additionally, significance of individual genes was tested by parametric T-test and non parametric Mann-Whitney test using Bootstrapping approach based on repeated permutations of the data with 5% FDR for multiple testing.
Gene functional annotation, enrichment, and pathway analyses to identify the leading biological pathways that operated under LAQ treatment were performed by Ingenuity Pathways Analysis software (www.ingenuity.com).
ANOVA analysis was used to compare PBMC gene expression after 1, 6 or 24 month of LAQ treatment with baseline gene expression.
For each time point inventors performed analysis source of variation in dataset. (FIG. 1). Age, gender and batch effects were considered as confounders regarding LAQ or Placebo related changes. For each time point genes associated with Placebo effect were evaluated and excluded from further analysis. […]

[1] = after six months of LAQ treatment
[2] = combined 6 and 24 months vs baseline

CCN(C(=O)c1c(O)c2c(Cl)cccc2n(C)c1=O)c1ccccc1 [LAQ, 5-chloro-N-ethyl-4-hydroxy-1-methyl-2-oxo-N-phenyl-1,2-dihydroquinoline-3-carboxamide]
13: genes (#), Caveolar mediated endocytosis (after six months of treatment)
−1.288: Fold-Change (4.0 vs. 0.0) (gene PARD3, after six months of LAQ) | Fold-Change (4.0 vs. 0.0) (gene VPS37B, after six months of LAQ)
−1.2873: Fold-Change (4.0 vs. 0.0) (gene CYP2B6 /// CYP2B7P1, after six months of LAQ)
3*10^−3 to 9*10^−3: p, down regulation of pro-inflammatory cytokines IL-9/11/12/20/36, TNFRSF11A/B, IFNA4/8/10/17 and receptors for IL-5/13/20/22 [1]
305: down-regulated genes related to cellular movement mechanisms (of 1564 genes that passed FDR, more than 6 months (combined 6 and 24 months))
2922: # of genes p < 0.01 (LAQ related MIGs, ANOVA) [2]
56: genes (#), Cell signaling: Neurotransmission (after six months of treatment)
6.79*10^−3: p, suppression of CCL19 and chemokine receptor CXCR1/2 [1]
4.95*10^−4 to 1.26*10^−3: p, down-regulation of MMP16/24/26/28 and ADAM12/18/22 [1]
−1.285: Fold-Change (4.0 vs. 0.0) (gene ALX4, after six months of LAQ) | Fold-Change (4.0 vs. 0.0) (gene KRT5, after six months of LAQ) | Fold-Change (4.0 vs. 0.0) (gene SOX15, after six months of LAQ)
14: genes (#), TGFB signaling (after six months of treatment)
50: suppressed molecules associated with different mechanisms of inflammatory response (of 354 genes affected after 1 month of treatment)
−1.18: Fold-Change (4.0 vs. 0.0) (gene BCAP29) | Fold-Change (4.0 vs. 0.0) (gene DCBLD2) | Fold-Change (4.0 vs. 0.0) (gene DPYSL4) | Fold-Change (4.0 vs. 0.0) (gene IFNA17) | Fold-Change (4.0 vs. 0.0) (gene LAMC2) | Fold-Change (4.0 vs. 0.0) (gene MGC2889) | Fold-Change (4.0 vs. 0.0) (gene NOVA2) | Fold-Change (4.0 vs. 0.0) (gene OR2J2) | Fold-Change (4.0 vs. 0.0) (gene PRSS7) | Fold-Change (4.0 vs. 0.0) (gene RAB11B) | Fold-Change (4.0 vs. 0.0) (gene RAD51) | Fold-Change (4.0 vs. 0.0) (gene RELN) | Fold-Change (4.0 vs. 0.0) (gene TACR2) | Fold-Change (4.0 vs. 0.0) (gene VSNL1)
73: genes (#), Development: G protein Coupled Receptor Signaling (after six months of treatment)
7: genes (#), Hematological system: Coagulation system (after six months of treatment)
−1.184: Fold-Change (4.0 vs. 0.0) (gene AAK1) | Fold-Change (4.0 vs. 0.0) (gene ACSM5) | Fold-Change (4.0 vs. 0.0) (gene ACTA1) | Fold-Change (4.0 vs. 0.0) (gene CLEC4M) | Fold-Change (4.0 vs. 0.0) (gene DHX34) | Fold-Change (4.0 vs. 0.0) (gene DNAH3) | Fold-Change (4.0 vs. 0.0) (gene KCND3) | Fold-Change (4.0 vs. 0.0) (gene NAGLU) | Fold-Change (4.0 vs. 0.0) (gene NNAT) | Fold-Change (4.0 vs. 0.0) (gene POPDC3) | Fold-Change (4.0 vs. 0.0) (gene SLC30A3)
31: genes (#), Leukocyte Extravasation Signaling (after six months of treatment, cellular movement function)
98%: share of significantly changed genes that were down regulated (one month of treatment)
−1.286: Fold-Change (4.0 vs. 0.0) (gene MALL, after six months of LAQ)
−1.1819: Fold-Change (4.0 vs. 0.0) (gene GIPR)
−1.181: Fold-Change (4.0 vs. 0.0) (gene ATN1) | Fold-Change (4.0 vs. 0.0) (gene CA10) | Fold-Change (4.0 vs. 0.0) (gene CNOT4) | Fold-Change (4.0 vs. 0.0) (gene CYR61) | Fold-Change (4.0 vs. 0.0) (gene GRM1) | Fold-Change (4.0 vs. 0.0) (gene HHLA1) | Fold-Change (4.0 vs. 0.0) (gene HOXC11) | Fold-Change (4.0 vs. 0.0) (gene ITGB4) | Fold-Change (4.0 vs. 0.0) (gene LAMA3) | Fold-Change (4.0 vs. 0.0) (gene PRKG1) | Fold-Change (4.0 vs. 0.0) (gene SLC6A11) | Fold-Change (4.0 vs. 0.0) (gene SLC37A4) | Fold-Change (4.0 vs. 0.0) (gene SLCO5A1) | Fold-Change (4.0 vs. 0.0) (gene SOD3) | Fold-Change (4.0 vs. 0.0) (gene STRA6)
−1.289: Fold-Change (4.0 vs. 0.0) (gene GRK5, after six months of LAQ)
−1.183: Fold-Change (4.0 vs. 0.0) (gene AKAP9) | Fold-Change (4.0 vs. 0.0) (gene C10orf81) | Fold-Change (4.0 vs. 0.0) (gene FAM189A1) | Fold-Change (4.0 vs. 0.0) (gene ICMT) | Fold-Change (4.0 vs. 0.0) (gene IGHG1) | Fold-Change (4.0 vs. 0.0) (gene MGC31957) | Fold-Change (4.0 vs. 0.0) (gene MYOZ1) | Fold-Change (4.0 vs. 0.0) (gene NTRK2) | Fold-Change (4.0 vs. 0.0) (gene PKNOX2) | Fold-Change (4.0 vs. 0.0) (gene PRDM11) | Fold-Change (4.0 vs. 0.0) (gene RET) | Fold-Change (4.0 vs. 0.0) (gene XPNPEP2)
−1.1781: Fold-Change (4.0 vs. 0.0) (gene ZNF484)
119: genes (#), Adhesion of cells (after six months of treatment)
260: genes related to suppression of Cellular movement functions (out of 1562 genes, 6 months of treatment)
2911: Down regulated genes (LAQ related MIGs) [2]
−1.1842: Fold-Change (4.0 vs. 0.0) (gene NPR1)
29: genes (#), Leukocyte Extravasation Signaling (after six months of treatment, inflammatory response function)
−1.284: Fold-Change (4.0 vs. 0.0) (gene ESPL1, after six months of LAQ)
−1.177: Fold-Change (4.0 vs. 0.0) (gene CLCN7) | Fold-Change (4.0 vs. 0.0) (gene RUNX2) | Fold-Change (4.0 vs. 0.0) (gene TTYH1) | Fold-Change (4.0 vs. 0.0) (gene ZNF280B)
6: genes (#), Hematological system: Intrinsic prothrombin activation pathway (after six months of treatment)
−1.1816: Fold-Change (4.0 vs. 0.0) (gene TRIO)
99%: share of significantly changed genes that were down regulated (six months of treatment)
−1.179: Fold-Change (4.0 vs. 0.0) (gene AIF1) | Fold-Change (4.0 vs. 0.0) (gene CBS) | Fold-Change (4.0 vs. 0.0) (gene EXO1) | Fold-Change (4.0 vs. 0.0) (gene GPRIN2) | Fold-Change (4.0 vs. 0.0) (gene IHH) | Fold-Change (4.0 vs. 0.0) (gene NECAB2) | Fold-Change (4.0 vs. 0.0) (gene NOX1) | Fold-Change (4.0 vs. 0.0) (gene OR1A2) | Fold-Change (4.0 vs. 0.0) (gene PDX1) | Fold-Change (4.0 vs. 0.0) (gene POLQ) | Fold-Change (4.0 vs. 0.0) (gene PRKCE) | Fold-Change (4.0 vs. 0.0) (gene PURA)
−1.182: Fold-Change (4.0 vs. 0.0) (gene CLN8) | Fold-Change (4.0 vs. 0.0) (gene GRM8) | Fold-Change (4.0 vs. 0.0) (gene NR1I2) | Fold-Change (4.0 vs. 0.0) (gene OR3A3) | Fold-Change (4.0 vs. 0.0) (gene PACRG) | Fold-Change (4.0 vs. 0.0) (gene PAH) | Fold-Change (4.0 vs. 0.0) (gene SLC25A10) | Fold-Change (4.0 vs. 0.0) (gene TTLL5) | Fold-Change (4.0 vs. 0.0) (gene ZNF215)
120: genes (#), Cellular movement: Invasion of cells (after six months of treatment)
−1.178: Fold-Change (4.0 vs. 0.0) (gene ASCL1) | Fold-Change (4.0 vs. 0.0) (gene BCAN) | Fold-Change (4.0 vs. 0.0) (gene DDN) | Fold-Change (4.0 vs. 0.0) (gene DUOX2) | Fold-Change (4.0 vs. 0.0) (gene FAM188A) | Fold-Change (4.0 vs. 0.0) (gene GPR12) | Fold-Change (4.0 vs. 0.0) (gene HS3ST3B1) | Fold-Change (4.0 vs. 0.0) (gene MORN1) | Fold-Change (4.0 vs. 0.0) (gene SERPINB3) | Fold-Change (4.0 vs. 0.0) (gene SLC39A2)
18: genes (#), Development: Arachidonic Acid metabolism (after six months of treatment)
11: genes (#), Inflammatory response: IL-12 signaling (after six months of treatment) | Up-regulated genes (LAQ related MIGs) [2]
